# Measured values published in ChEMBL document CHEMBL1629662, “Antimicrobial activity of prulifloxacin tested against a worldwide collection of gastroenteritis-producing pathogens, including those causing traveler's diarrhea” (2009).
# What was measured:
# Campylobacter jejuni [1] = experiment: Antibacterial activity against Campylobacter jejuni assessed as percent resistant isolates by broth microdilution method; format: functional; settings: pooled result: one value given for 2 cell lines, strains, targets or settings
# Campylobacter coli = experiment: Antibacterial activity against Campylobacter coli by broth microdilution method; format: functional
# Campylobacter jejuni [2] = experiment: Antibacterial activity against Campylobacter jejuni assessed as percent susceptible isolates by broth microdilution method; format: functional; settings: pooled result: one value given for 2 cell lines, strains, targets or settings
# Campylobacter jejuni [3] = experiment: Antibacterial activity against Campylobacter jejuni by broth microdilution method; format: functional
# Vibrio fluvialis = experiment: Antibacterial activity against Vibrio fluvialis by broth microdilution method; format: functional
# Aeromonas caviae = experiment: Antibacterial activity against Aeromonas caviae by broth microdilution method; format: functional
# [4] = tested on: Yersinia pseudotuberculosis; experiment: Antibacterial activity against Yersinia pseudotuberculosis by broth microdilution method; format: functional
# Shigella boydii = experiment: Antibacterial activity against Shigella boydii by broth microdilution method; format: functional
# Plesiomonas shigelloides = experiment: Antibacterial activity against Plesiomonas shigelloides by broth microdilution method; format: functional
# Vibrio sp. = experiment: Antibacterial activity against Vibrio sp. by broth microdilution method; format: functional
# Shigella sonnei = experiment: Antibacterial activity against Shigella sonnei by broth microdilution method; format: functional
# Aeromonas sobria = experiment: Antibacterial activity against Aeromonas sobria by broth microdilution method; format: functional
# Salmonella typhimurium = experiment: Antibacterial activity against Salmonella enterica serovar Typhimurium by broth microdilution method; format: functional, Salmonella enterica subsp. enterica serovar Typhimurium
# Shigella flexneri = experiment: Antibacterial activity against Shigella flexneri by broth microdilution method; format: functional
# Aeromonas hydrophila = experiment: Antibacterial activity against Aeromonas hydrophila by broth microdilution method; format: functional
# Yersinia enterocolitica = experiment: Antibacterial activity against Yersinia enterocolitica by broth microdilution method; format: functional
# Vibrio vulnificus = experiment: Antibacterial activity against Vibrio vulnificus by broth microdilution method; format: functional
# Vibrio parahaemolyticus = experiment: Antibacterial activity against Vibrio parahaemolyticus by broth microdilution method; format: functional
# Shigella dysenteriae = experiment: Antibacterial activity against Shigella dysenteriae by broth microdilution method; format: functional
# Aeromonas veronii = experiment: Antibacterial activity against Aeromonas veronii by broth microdilution method; format: functional
# Escherichia coli = experiment: Antibacterial activity against Escherichia coli by broth microdilution method; format: functional
# Salmonella enteritidis = experiment: Antibacterial activity against Salmonella enterica serovar Enteritidis by broth microdilution method; format: functional, Salmonella enterica subsp. enterica serovar Enteritidis
# Vibrio cholerae = experiment: Antibacterial activity against Vibrio cholerae by broth microdilution method; format: functional
# Vibrio alginolyticus = experiment: Antibacterial activity against Vibrio alginolyticus by broth microdilution method; format: functional
structure (smiles),measurement,setting,value
CC[C@H]1OC(=O)[C@H](C)[C@@H](O[C@H]2C[C@@](C)(OC)[C@@H](O)[C@H](C)O2)[C@H](C)[C@@H](O[C@@H]2O[C@H](C)C[C@H](N(C)C)[C@H]2O)[C@](C)(O)C[C@@H](C)C(=O)[C@H](C)[C@@H](O)[C@]1(C)O [ERYTHROMYCIN],Activity,Campylobacter jejuni [1],0%
same,MIC50,Campylobacter coli,0.25 µg/mL
same,MIC90,Campylobacter coli,0.5 µg/mL
same,Activity,Campylobacter jejuni [2],100%
same,MIC50,Campylobacter jejuni [3],0.25 µg/mL
same,MIC90,Campylobacter jejuni [3],0.5 µg/mL
CO[C@H]1/C=C/O[C@@]2(C)Oc3c(C)c(O)c4c(O)c(c5c(nc6cc(C)ccn65)c4c3C2=O)NC(=O)/C(C)=C\C=C\[C@H](C)[C@H](O)[C@@H](C)[C@@H](O)[C@@H](C)[C@H](OC(C)=O)[C@@H]1C [RIFAXIMIN],MIC50,Campylobacter coli,32 µg/mL
same,MIC90,Campylobacter coli,32 µg/mL
same,MIC50,Vibrio fluvialis,0.5 µg/mL
same,MIC90,Vibrio fluvialis,1 µg/mL
same,MIC50,Aeromonas caviae,4 µg/mL
same,MIC90,Aeromonas caviae,8 µg/mL
same,MIC50,[4],4 µg/mL
same,MIC90,[4],8 µg/mL
same,MIC50,Shigella boydii,8 µg/mL
same,MIC90,Shigella boydii,16 µg/mL
same,MIC,Plesiomonas shigelloides,8 µg/mL
same,MIC50,Plesiomonas shigelloides,8 µg/mL
same,MIC50,Vibrio sp.,0.5 µg/mL
same,MIC90,Vibrio sp.,1 µg/mL
same,MIC50,Shigella sonnei,8 µg/mL
same,MIC90,Shigella sonnei,16 µg/mL
same,MIC50,Aeromonas sobria,4 µg/mL
same,MIC90,Aeromonas sobria,8 µg/mL
same,MIC50,Salmonella typhimurium,8 µg/mL
same,MIC90,Salmonella typhimurium,16 µg/mL
same,MIC50,Shigella flexneri,8 µg/mL
same,MIC90,Shigella flexneri,16 µg/mL
same,MIC50,Aeromonas hydrophila,4 µg/mL
same,MIC90,Aeromonas hydrophila,8 µg/mL
same,MIC50,Yersinia enterocolitica,4 µg/mL
same,MIC90,Yersinia enterocolitica,8 µg/mL
same,MIC50,Vibrio vulnificus,0.5 µg/mL
same,MIC90,Vibrio vulnificus,1 µg/mL
same,MIC50,Vibrio parahaemolyticus,0.5 µg/mL
same,MIC90,Vibrio parahaemolyticus,1 µg/mL
same,MIC50,Shigella dysenteriae,8 µg/mL
same,MIC90,Shigella dysenteriae,16 µg/mL
same,MIC50,Campylobacter jejuni [3],32 µg/mL
same,MIC90,Campylobacter jejuni [3],32 µg/mL
same,MIC50,Aeromonas veronii,4 µg/mL
same,MIC90,Aeromonas veronii,8 µg/mL
same,MIC50,Escherichia coli,8 µg/mL
same,MIC90,Escherichia coli,16 µg/mL
same,MIC50,Salmonella enteritidis,8 µg/mL
same,MIC90,Salmonella enteritidis,16 µg/mL
same,MIC50,Vibrio cholerae,0.5 µg/mL
same,MIC90,Vibrio cholerae,1 µg/mL
same,MIC50,Vibrio alginolyticus,0.5 µg/mL
same,MIC90,Vibrio alginolyticus,1 µg/mL
